How the values were obtained:
[1] = tested on: RNA polymerase II Ser2 phosphorylation (p-Ser2) in SU-DHL-4 cells; test: In vitro washout, p-Ser2 Western blot, SU-DHL-4; type: cell-based, human; conditions: 4-hour treatment then washout
Description: Evaluation of the pharmacodynamic extent and duration of CDK9 inhibition were performed in vitro using the human DLBCL cell lines SU-DHL-4 and SU-DHL-10, harboring MYC amplification and MYC overexpression with P57T mutation, respectively. Cells were seeded 18 hours prior to treatment for 4 hours with one of three CDK9 inhibitors, enitociclib (0.25 and1 µmol/L), atuveciclib (1 µmol/L) or KB-0742 (1 µmol/L), cells were washed, and incubation continued until 48 hours posttreatment. Samples were collected before treatment (−4), immediately after treatment (0), and at 1, 2, 4, 8, 12, 16, 24, and 48 hours after washout for RNA sequencing (RNA-seq), qPCR, and Western blotting analyses.
(§1) The levels of p-Ser2, p-Ser5 and total RNA polymerase II, Myc, Mcl-1, cleaved PARP (cPARP), and cleaved Caspase 3 were assessed by Western blotting and quantified near-infrared detection and background corrected quantification of fluorescence intensity on an Odyssey Imaging System with IRDye secondary antibodies (LI-COR Biosciences). For quantification, the protein levels were normalized to GAPDH or HSP90, expressed as a ratio to DMSO or vehicle control at matched timepoints. The normalized relative protein levels of p-Ser2 were used for a treatment effect comparison by performing an ANOVA using PROC MIXED in SAS. The ANOVA model included treatment, timepoints and their interactions as fixed effects. The least square means (LSM), differences between the LSMs and associated P values were generated. The following primary antibodies were used: Rpb1 NTD (D8L4Y) rabbit antibody [Cell Signaling Technology (CST), #14958], anti-RNA polymerase II subunit B1 (phospho CTD Ser-2, clone 3E10) rat antibody (Merck, 04-1571-I), recombinant anti-c-MYC rabbit antibody (Y69; Abcam, #ab32072), MCL1 (D5V5L) rabbit antibody (CST, #39224), cleaved-PARP (Asp214) (E2T4K) mouse antibody (CST, #32563), HSP90 (C45G5) rabbit antibody (CST, #4877), and GAPDH mouse antibody (Zytomed Systems, #ZYT-RGM2-6C5).

[2] = tested on: SU-DHL-10 xenografts; test: SU-DHL-10 xenograft antitumor efficacy; type: in vivo, C.B-17 SCID mice
Description: A total of 10 × 10^6 SU-DHL-10 cells were inoculated subcutaneously into 6–8 weeks old female C.B-17 SCID mice (Iffa Credo, Brussels). The mice were randomized to treatment groups at a tumor volume of 63–104 mm^3 and treated (intravenously, once weekly) with 10 mg/kg enitociclib (60% PEG400, 10% ethanol, water), 15 mg/kg enitociclib (30% PEG400, 10% ethanol, water), or corresponding vehicle treatments. Mice were around 10–12 weeks of age at the start of study. All animal experiments were performed under the national animal welfare laws of Germany and approved by the local authorities.
Statistical analyses were performed using GraphPad Prism v9 (GraphPad Software). For tumor volumes in SU-DHL-10 xenograft model, statistics were performed using unpaired t test in comparison with the corresponding vehicle treatment. The obtained P values were adjusted for all analyses. Results were considered statistically significant when P < 0.05.

[3] = tested on: p-Ser5 RNA polymerase II in SU-DHL-10 tumors; test: Pharmacodynamics in SU-DHL-10 xenograft tumors, p-Ser5; type: in vivo, C.B-17 SCID mice; conditions: single dose, all doses (5, 10, 15 mg/kg)
Description: as §1, with “#ZYT-RGM2-6C5). […]” for “#ZYT-RGM2-6C5).”

[4] = tested on: PHF23, TP53RK, ZFP36 and JUNB mRNA in blood; test: RNA-seq DEGs in blood of patients (PHF23, TP53RK, ZFP36, JUNB); type: in vivo, human
Description: Total RNA was extracted from blood of patients and cell lines using RNeasy Plus Mini Kit (QIAGEN, #74136) and cDNA prepared with the Maxima First Strand cDNA Synthesis Kit for RT-PCR (Thermo Fisher Scientific, K1642) according to manufacturer's instructions. The integrity of purified total RNA was evaluated using an Agilent 2100 Bioanalyzer system and RNA 6000 Nano Kit (Agilent, #5067-1511). Differential gene expression analysis was performed (Fios Genomics) from RNA-seq data (Discovery Life Sciences). MYC and MCL1 mRNA levels were measured by qPCR in vitro and in vivo, using a Taqman qPCR system (Thermo Fisher Scientific), TaqMan Fast Universal PCR Master Mix (2X) no AmpErase (#4352042) and TaqMan probes for MYC (Hs00153408_m1) and MCL1 (Hs03043899_m1). RNA-seq data were analyzed using DESeq2 ([35]).
Fifteen patients with refractory or relapsed DH-DLBCL or other MYC+ NHL were treated with enitociclib (30 mg, 21-day cycle, once weekly x3) as a 30-minute intravenous infusion on study days 1, 8, and 15 (NCT02635672). Longitudinal gene expression levels were analyzed by RNA-seq, and enitociclib plasma concentrations were measured using LC/MS-MS. The clinical study protocol was approved by the Institutional Review Board of participating institutions and complied with the Declaration of Helsinki, current Good Clinical Practice guidelines, and local laws and regulations. Written informed consent was provided by all participants prior to the initiation of any study-specific procedure.
RNA-seq data generated from the analysis of two cell lines treated with the three CDK9 inhibitors was analyzed to investigate the differences in gene expression levels between various posttreatment timepoints and the pretreatment samples. Quality control assessment and exploratory data analysis by principal component analysis (PCA) were done on raw counts and on normalized count data. Normalization of RNA-seq count data was done using trimmed mean of M-values normalization and transformed with voom, resulting in log2 counts per million with associated precision weights. […] Significance values (Padj) were adjusted for multiple testing, by controlling the FDR using the Benjamini–Hochberg procedure. […] RNA-seq data generated from blood samples taken from patients before and after their first dose (C1D1) or after multiple doses, before and after their third dose (C1D15) were analyzed and normalized using the same pipeline as cell lines for comparisons.

[5] = Clinical pharmacokinetics, plasma LC/MS-MS (NCT02635672); type: in vivo, human; conditions: subject 3, dose lowered from 30 to 22.5 mg, not included in average
[6] = tested on: DH-DLBCL and other MYC+ NHL; conditions: 30 mg i.v. once weekly, phase I; cited from earlier work
[7] = DH-DLBCL and other MYC+ NHL, after C1D1 and C1D15

## COc1cc(F)ccc1-c1cc(Nc2cc(CS(C)(=N)=O)ccn2)ncc1F (centres unmarked) [enitociclib]
[1]; 0.25 µmol/L
  decrease of p-Ser2 levels: 50%
  duration of p-Ser2 decrease: up to 48 hours
[1]; 1 µmol/L
  duration of p-Ser2 decrease: 48 h
[2]; 10 mg/kg i.v. once weekly
  antitumor efficacy (in words): tumor growth control
[2]; 10 mg/kg i.v. once weekly, day 16 after treatment start, P = 0.011
  treatment/control (T/C) value: 0.19
[2]; 15 mg/kg i.v. once weekly, 3-week treatment period
  antitumor efficacy (in words): complete regression
[2]; 15 mg/kg i.v. once weekly, day 20 after treatment start, P < 0.001
  treatment/control (T/C) value: 0.005
[2]; SU-DHL-10 xenografts
  tumor growth inhibition reaching, of control: 0.5 % of control
[3]
  p-Ser5 reductions in tumors (in words): not robust
[4]; [7]
  PHF23 mRNA fold change from predose: approximately –1 fold change
  TP53RK mRNA fold change from predose: –2 fold change
[4]; other MYC+ NHL (n = 3), after C1D1
  Downregulation of ZFP36 and JUNB mRNA levels: approximately −2 fold change
[4]; other MYC+ NHL (n = 3), after C1D15 (decreased toward)
  Downregulation of ZFP36 and JUNB mRNA levels: ~−1
[4]; patients with DH-DLBCL, after C1D1 and C1D15
  Downregulation of ZFP36 and JUNB mRNA levels: > −2
[5]; human, plasma, intravenous, 22.5 mg, read-out: Multiple dose tmax
  Tmax: 29 min
[5]
  Multiple dose AUC0-t: 1,670^b µg^ah/L
[6]
  complete metabolic remission (CR), patients with DH-DLBCL: 2 of 7
